Measured values as given in the NIST ThermoML archive (doi:10.1016/j.jct.2018.12.019).

Legend:
[1] = xn = mol fraction of the nth substance listed; conditions: 98 kPa, Liquid; for speed of sound: Frequency=3 MHz, Single path-length method; for mass density: Vibrating tube method
[2] = excess molar enthalpy (molar enthalpy of mixing); xn = mol fraction of the nth substance listed; conditions: 298.15 K, 98 kPa, Liquid, Calvet calorimetry

Cn1ccnc1 [1-methylimidazole] + CC(C)O
[1]
Conditions	mass density, 288.15 K [kg/m3]	mass density, 298.15 K [kg/m3]	mass density, 308.15 K [kg/m3]	mass density, 318.15 K [kg/m3]	mass density, 328.15 K [kg/m3]	speed of sound, 288.15 K [m/s]	speed of sound, 298.15 K [m/s]	speed of sound, 308.15 K [m/s]	speed of sound, 318.15 K [m/s]	speed of sound, 328.15 K [m/s]
x1 = 0.0508	803.32	794.92	786.26	777.31	767.99	1199.2	1164	1128.7	1093.2	1057.4
x1 = 0.1043	817.79	809.32	800.63	791.7	782.45	1224.9	1189.6	1154.6	1118.7	1083
x1 = 0.2003	843.18	834.63	825.91	817	807.86	1268.9	1233.4	1197.9	1162.5	1127.2
x1 = 0.3007	869.37	860.76	852.02	843.13	834.07	1313.8	1278.4	1242.9	1207.7	1172.6
x1 = 0.405	896.25	887.59	878.83	869.96	860.95	1360.7	1325.3	1289.7	1254.5	1219.5
x1 = 0.5046	921.64	912.93	904.15	895.28	886.27	1406.8	1371.1	1335.5	1300.1	1265
x1 = 0.6006	945.55	936.79	927.97	919.09	910.11	1451.7	1415.7	1379.6	1344	1308.6
x1 = 0.7034	970.8	962	953.15	944.24	935.27	1500.7	1464.1	1427.7	1391.6	1355.8
x1 = 0.8029	994.49	985.66	976.78	967.86	958.89	1547.2	1510.2	1473.3	1436.7	1400.5
x1 = 0.9031	1017.75	1008.9	1000.03	991.11	982.15	1592.8	1555.5	1518.1	1481.2	1444.6
x1 = 0.9536	1029.16	1020.32	1011.45	1002.55	993.6	1614.9	1577.5	1540	1502.9	1466.2
x1 = 1	1039.36	1030.52	1021.66	1012.76	1003.83	1634.1	1596.5	1559	1521.8	1485

[2]
Conditions	excess molar enthalpy [kcal/mol]
x1 = 0.0518	-0.0112
x1 = 0.1082	-0.0304
x1 = 0.1974	-0.0511
x1 = 0.2924	-0.0734
x1 = 0.3342	-0.0793
x1 = 0.3969	-0.0848
x1 = 0.4954	-0.0899
x1 = 0.5926	-0.0846
x1 = 0.7041	-0.0719
x1 = 0.798	-0.0519
x1 = 0.8831	-0.0294
x1 = 0.9538	-0.0143
x1 = 1	0
